One may read the pIC50 as the IC50 on a negative log10 scale, so that one unit is a factor of ten.

The text below walks through data of patent US20240217978A1 (CHONG KUN DANG PHARMACEUTICAL CORP., priority 2021, published 2024).

pIC50: −log10 of the molar value.

The assay concerns the target human adenosine A2a receptor (Homo sapiens (Human), UniProt P29274). The assay can be described thus: A2a receptor binding affinity, [3H]-NECA radioligand binding test. To be noted: [3H]-NECA 37 nM; membrane from HEK-293 cells transfected with human adenosine A2a receptor. Put shortly:
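IC50 values (μM) come from displacement of [3H]-NECA, used at 37 nM final, on human A2a receptor membranes from transfected HEK-293 cells. Incubation lasted one hour at room temperature in Tris/MgCl2/EDTA buffer, pH 7.4; filter-bound radioactivity was counted by scintillation.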

Sequence of human adenosine A2a receptor (P29274 whole entry): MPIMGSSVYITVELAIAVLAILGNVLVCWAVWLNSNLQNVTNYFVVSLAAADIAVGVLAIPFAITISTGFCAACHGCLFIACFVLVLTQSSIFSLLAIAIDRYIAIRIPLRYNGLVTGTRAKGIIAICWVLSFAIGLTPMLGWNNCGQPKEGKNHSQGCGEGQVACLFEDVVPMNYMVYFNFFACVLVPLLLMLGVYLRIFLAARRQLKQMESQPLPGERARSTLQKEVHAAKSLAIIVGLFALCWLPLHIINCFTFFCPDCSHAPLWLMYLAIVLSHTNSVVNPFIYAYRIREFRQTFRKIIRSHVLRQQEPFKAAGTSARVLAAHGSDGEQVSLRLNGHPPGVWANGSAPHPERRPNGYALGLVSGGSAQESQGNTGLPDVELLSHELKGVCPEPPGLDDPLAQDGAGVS

As for `CC(C)(C)N1CCN(C(=O)[C@@H]2CCCN2c2nc(N)n3nc(-c4ccco4)nc3n2)CC1` [Example 137, (S)-(1-(7-amino-2-(furan-2-yl)-[1,2,4]triazolo[1,5-a][1,3,5]triazin-5-yl)pyrrolidin-2-yl)(4-(tert-butyl)piperazin-1-yl)methanone], the pIC50 was 7.32. In the case of `COc1ccc(NC(=O)N2CCN(C(=O)[C@@H]3CCCN3c3nc(N)n4nc(-c5ccco5)nc4n3)CC2)cc1` [Example 62, 4-((7-amino-2-(furan-2-yl)-[1,2,4]triazolo[1,5-a][1,3,5]triazin-5-yl)-L-prolyl)-N-(4-methoxyphenyl)piperazin-1-carboxamide], the pIC50 is 8.22. Consider `Nc1nc(N2CCC[C@H]2C(=O)N2CCN(CC3(C(F)(F)F)CCC3)CC2)nc2nc(-c3ccco3)nn12` [Example 284, (S)-(1-(7-amino-2-(furan-2-yl)-[1,2,4]triazolo[1,5-a][1,3,5]triazin-5-yl)pyrrolidin-2-yl)(4-((1-(trifluoromethyl)cyclobutyl)methyl)piperazin-1-yl)methanone], for which the pIC50 was 8.30. The value for `Nc1nc(N2CCC[C@H]2C(=O)N2CCC(F)(F)CC2)nc2nc(-c3ccco3)nn12` [Example 55, (S)-(1-(7-amino-2-(furan-2-yl)-[1,2,4]triazolo[1,5-a][1,3,5]triazin-5-yl)pyrrolidin-2-yl)(4,4-difluoropiperidin-1-yl)methanone] was 7.80. The compound `COCCN1CCN(C2CN(C(=O)[C@@H]3CCCN3c3nc(N)n4nc(-c5ccco5)nc4n3)C2)CC1` [Example 405, (S)-(1-(7-amino-2-(furan-2-yl)-[1,2,4]triazolo[1,5-a][1,3,5]triazin-5-yl)pyrrolidin-2-yl)(3-(4-(2-methoxyethyl)piperazin-1-yl)azetidin-1-yl)methanone] had a negative-log IC50 (pIC50) of 7.15. The value for `Nc1nc(N2CCC[C@H]2C(=O)N2CCN(c3nccs3)CC2)nc2nc(-c3ccco3)nn12` [Example 125, 2-(4-((7-amino-2-(furan-2-yl)-[1,2,4]triazolo[1,5-a][1,3,5]triazin-5-yl)-L-prolyl)piperazin-1-yl)thiazole] was 8.05.

Take `CC(C)(O)CN1CCN(C(=O)[C@@H]2CCN2c2nc(N)n3nc(-c4ccco4)nc3n2)CC1` [Example 350, (S)-(1-(7-amino-2-(furan-2-yl)-[1,2,4]triazolo[1,5-a][1,3,5]triazin-5-yl)azetidin-2-yl)(4-(2-hydroxy-2-methylpropyl)piperazin-1-yl)methanone]: the pIC50 was 8.05. Regarding `Nc1nc(N2CCC[C@H]2C(=O)N2CCN(c3ccc(C(F)(F)F)cc3F)CC2)nc2nc(-c3ccco3)nn12` [Example 149, (S)-(1-(7-amino-2-(furan-2-yl)-[1,2,4]triazolo[1,5-a][1,3,5]triazin-5-yl)pyrrolidin-2-yl)(4-(2-fluoro-4-(trifluoromethyl)phenyl)piperazin-1-yl)methanone], the pIC50 is 9.30. The value for `CC(C)[C@H](Nc1nc(N)n2nc(-c3ccco3)nc2n1)C(=O)N1CCN(CC(F)(F)F)CC1` [Example 144, (S)-2-((7-amino-2-(furan-2-yl)-[1,2,4]triazolo[1,5-a][1,3,5]triazin-5-yl)amino)-3-methyl-1-(4-(2,2,2-trifluoroethyl)piperazin-1-yl)butan-1-one] was 7.85; that for `CCCC[C@H](Nc1nc(N)n2nc(-c3ccco3)nc2n1)C(=O)N1CCN(CC(F)(F)F)CC1` [Example 213, (S)-2-((7-amino-2-(furan-2-yl)-[1,2,4]triazolo[1,5-a][1,3,5]triazin-5-yl)amino)-1-(4-(2,2,2-trifluoroethyl)piperazin-1-yl)hexan-1-one] was 8.15. In turn, `Nc1nc(N2CCC[C@H]2C(=O)N2CCC(CN3CCC(C(F)(F)F)CC3)CC2)nc2nc(-c3ccco3)nn12` [Example 331, (S)-(1-(7-amino-2-(furan-2-yl)-[1,2,4]triazolo[1,5-a][1,3,5]triazin-5-yl)pyrrolidin-2-yl)(4-((4-(trifluoromethyl)piperidin-1-yl)methyl)piperidin-1-yl)methanone] gave a pIC50 of 8.00. As for `Nc1nc(N2CCC[C@@H]2C(=O)N2CCN(C(=O)c3ccccc3)CC2)nc2nc(-c3ccco3)nn12` [Example 98], the pIC50 is 4.95. Compound `Nc1nc(N2CC[C@H]2C(=O)N2CCN(CC(=O)N3CCOCC3)CC2)nc2nc(-c3ccco3)nn12` [Example 65, (S)-2-(4-(1-(7-amino-2-(furan-2-yl)-[1,2,4]triazolo[1,5-a][1,3,5]triazin-5-yl)azetidine-2-carbonyl)piperazin-1-yl)-1-morpholinoethan-1-one] showed a pIC50 of 8.00.

For `Cc1ccc(-c2nc3nc(N4CCC[C@H]4C(=O)N4CCN(c5nccs5)CC4)nc(N)n3n2)o1` [Example 202, 2-(4-((7-amino-2-(5-methylfuran-2-yl)-[1,2,4]triazolo[1,5-a][1,3,5]triazin-5-yl)-L-prolyl)piperazin-1-yl)thiazole], the pIC50 was 8.15. `Nc1nc(N2CCC[C@H]2C(=O)N2CCN(S(=O)(=O)C3CC3)CC2)nc2nc(-c3ccco3)nn12` [Example 69, (S)-(1-(7-amino-2-(furan-2-yl)-[1,2,4]triazolo[1,5-a][1,3,5]triazin-5-yl)pyrrolidin-2-yl)(4-(cyclopropylsulfonyl)piperazin-1-yl)methanone] gave a negative-log IC50 (pIC50) of 7.17. Turning to `CC[C@H](Nc1nc(N)n2nc(-c3ccco3)nc2n1)C(=O)N1CCN(c2nccs2)CC1` [Example 248, (S)-2-((7-amino-2-(furan-2-yl)-[1,2,4]triazolo[1,5-a][1,3,5]triazin-5-yl)amino)-1-(4-(thiazol-2-yl)piperazin-1-yl)butan-1-one], the pIC50 is 7.89. Turning to `COCCN1CCN(C(=O)[C@@H]2CCN2c2nc(N)n3nc(-c4ccco4)nc3n2)CC1` [Example 107, (S)-(1-(7-amino-2-(furan-2-yl)-[1,2,4]triazolo[1,5-a][1,3,5]triazin-5-yl)azetidin-2-yl)(4-(2-methoxyethyl)piperazin-1-yl) methanone], the pIC50 was 8.05. In turn, `C[C@H](Nc1nc(N)n2nc(-c3ccco3)nc2n1)C(=O)N1CCC(C2CCN(CC(C)(F)F)CC2)CC1` [Example 335, (S)-2-((7-amino-2-(furan-2-yl)-[1,2,4]triazolo[1,5-a][1,3,5]triazin-5-yl)amino)-1-(1′-(2,2-difluoropropyl)-[4,4′-bipiperidin]-1-yl)propan-1-one] had a pIC50 of 9.00. Turning to `Nc1nc(N2CCC[C@H]2C(=O)N2CC3CCC(C2)N3C(=O)Nc2ccccc2)nc2nc(-c3ccco3)nn12` [Example 179, 3-((7-amino-2-(furan-2-yl)-[1,2,4]triazolo[1,5-a][1,3,5]triazin-5-yl)-L-prolyl)-N-phenyl-3,8-diazabicyclo[3.2.1]octane-8-carboxamide], the pIC50 was 8.30. The compound `CN1CCN(C(=O)[C@@H]2CCCN2c2nc(N)n3nc(-c4ccco4)nc3n2)CC1=O` [Example 145, 4-((7-amino-2-(furan-2-yl)-[1,2,4]triazolo[1,5-a][1,3,5]triazin-5-yl)-L-prolyl)-1-methylpiperazin-2-one] gave a pIC50 of 7.89. `Nc1nc(N2CCC[C@H]2C(=O)N2CCC(C(=O)N3CCCCC3)CC2)nc2nc(-c3ccco3)nn12` [Example 142, (1-((7-amino-2-(furan-2-yl)-[1,2,4]triazolo[1,5-a][1,3,5]triazin-5-yl)-L-prolyl)piperidin-4-yl)(piperidin-1-yl)methanone] gave a pIC50 of 7.89.
